Results published in ChEMBL document CHEMBL1201862, “PubChem BioAssay data set” (2004).
The source made the active and inactive calls.

Legend:
Coagulation factor XII = target: T1, Coagulation factor XII (Homo sapiens, UniProt P00748); format: functional;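 note: activated factor XIIa alpha cleaving a fluorogenic AMC peptide substrate; inhibitor potency from loss of enzyme activity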
T1 sequence (P00748 whole entry): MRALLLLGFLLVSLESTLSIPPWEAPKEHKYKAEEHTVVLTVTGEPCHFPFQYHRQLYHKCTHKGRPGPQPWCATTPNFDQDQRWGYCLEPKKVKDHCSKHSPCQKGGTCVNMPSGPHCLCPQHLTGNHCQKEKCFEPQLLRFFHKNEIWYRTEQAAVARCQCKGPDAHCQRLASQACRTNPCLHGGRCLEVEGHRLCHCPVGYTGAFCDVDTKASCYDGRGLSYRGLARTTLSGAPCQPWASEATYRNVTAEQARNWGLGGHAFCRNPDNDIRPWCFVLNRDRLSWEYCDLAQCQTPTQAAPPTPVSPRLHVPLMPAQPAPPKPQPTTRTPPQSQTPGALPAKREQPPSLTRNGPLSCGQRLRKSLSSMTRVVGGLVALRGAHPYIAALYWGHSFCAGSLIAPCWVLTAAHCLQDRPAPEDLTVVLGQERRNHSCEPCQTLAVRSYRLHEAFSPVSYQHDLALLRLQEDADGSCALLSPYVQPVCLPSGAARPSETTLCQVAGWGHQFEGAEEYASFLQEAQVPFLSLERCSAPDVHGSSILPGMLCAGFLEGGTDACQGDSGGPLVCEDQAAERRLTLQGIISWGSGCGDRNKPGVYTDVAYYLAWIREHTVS

Troponin, cardiac muscle = Troponin, cardiac muscle (Homo sapiens, UniProt P19429+P45379+P63316); assay: Fluorescence-based biochemical high throughput dose response assay for activators of the calcium sensitivity of cardiac Regulated Thin Filaments (RTF). [Related pubchem assays (depositor defined):AID493008, AID493018, AID504382, AID504383]; format: protein-complex assay
Cannabinoid receptor 2 [1] = target: T2, Cannabinoid receptor 2 (Homo sapiens, UniProt P34972); assay: SAR analysis of agonists of the Cannabinoid Receptor 2 using an Image-Based Assay - Set 3. [Related pubchem assays (depositor defined):AID2013, AID2026]; format: functional
Cannabinoid receptor 1 [2] = target: T3, Cannabinoid receptor 1 (Homo sapiens, UniProt P21554); assay: SAR analysis of antagonists of the Cannabinoid Receptor 1 using an Image-Based Assay - Set 4. [Related pubchem assays (depositor defined):AID2013, AID2026]; format: functional
[3] = target: T4, G-protein coupled receptor 35 (Homo sapiens, UniProt Q9HC97); assay: SAR analysis of Antagonists of the GPR35 Receptor using an Image-Based Assay - Set 6. [Related pubchem assays (depositor defined):AID2013, AID2026]; format: functional
[4] = target: T4, G-protein coupled receptor 35; assay: SAR analysis of Agonists of the GPR35 Receptor using an Image-Based Assay - Set 4. [Related pubchem assays (depositor defined):AID2013, AID2026]; format: functional
Cannabinoid receptor 2 [5] = target: T2, Cannabinoid receptor 2; assay: SAR analysis of antagonists of the Cannabinoid Receptor 2 using an Image-Based Assay - Set 3. [Related pubchem assays (depositor defined):AID2013, AID2026]; format: functional
Cannabinoid receptor 1 [6] = target: T3, Cannabinoid receptor 1; assay: SAR analysis of agonists of the Cannabinoid Receptor 1 using an Image-Based Assay - Set 4. [Related pubchem assays (depositor defined):AID2013, AID2026]; format: functional
[7] = target: G-protein coupled receptor 55 (Homo sapiens, UniProt Q9Y2T6); assay: SAR Analysis of Selective Antagonists of GPR55 using an Image-Based Assay - Set 4. [Related pubchem assays (depositor defined):AID2013, AID2026]; format: functional;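 note: antagonism of response to 5 µM lysophosphatidylinositol agonist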
[8] = target: T5, Ubiquitin-conjugating enzyme E2 N (Homo sapiens, UniProt P61088); format: functional
T5 sequence (P61088 whole entry): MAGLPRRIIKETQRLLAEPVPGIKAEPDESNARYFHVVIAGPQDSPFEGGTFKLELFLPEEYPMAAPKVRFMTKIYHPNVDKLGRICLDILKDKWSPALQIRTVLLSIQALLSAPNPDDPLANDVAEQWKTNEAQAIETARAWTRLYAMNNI

[9] = target: T5, Ubiquitin-conjugating enzyme E2 N; format: functional; remark: listed apart in the source
Bcl-2-related protein A1 = target: T6, Bcl-2-related protein A1 (Mus musculus, UniProt Q07440); format: functional;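 note: confirmatory dose–response counterscreen on Bfl-1, used to check hits from a UBC13 polyubiquitin inhibitor campaign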
T6 sequence (Q07440 whole entry): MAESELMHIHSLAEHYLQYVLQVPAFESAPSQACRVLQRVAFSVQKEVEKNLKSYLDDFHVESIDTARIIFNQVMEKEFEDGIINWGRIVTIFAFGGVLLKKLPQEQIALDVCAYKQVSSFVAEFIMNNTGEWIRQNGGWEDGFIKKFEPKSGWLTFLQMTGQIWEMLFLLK

Hexokinase = Hexokinase (Trypanosoma brucei, UniProt Q38C41); assay: Confirmation assay for inhibitors of Trypanosoma brucei hexokinase 1-Analogue-first series. [Related pubchem assays (depositor defined):AID1430, AID1632, AID2516, AID2560, AID2579, AID2600, AID449725, AID492951]; format: functional
Chain of Hexokinase (Q38C41 whole entry): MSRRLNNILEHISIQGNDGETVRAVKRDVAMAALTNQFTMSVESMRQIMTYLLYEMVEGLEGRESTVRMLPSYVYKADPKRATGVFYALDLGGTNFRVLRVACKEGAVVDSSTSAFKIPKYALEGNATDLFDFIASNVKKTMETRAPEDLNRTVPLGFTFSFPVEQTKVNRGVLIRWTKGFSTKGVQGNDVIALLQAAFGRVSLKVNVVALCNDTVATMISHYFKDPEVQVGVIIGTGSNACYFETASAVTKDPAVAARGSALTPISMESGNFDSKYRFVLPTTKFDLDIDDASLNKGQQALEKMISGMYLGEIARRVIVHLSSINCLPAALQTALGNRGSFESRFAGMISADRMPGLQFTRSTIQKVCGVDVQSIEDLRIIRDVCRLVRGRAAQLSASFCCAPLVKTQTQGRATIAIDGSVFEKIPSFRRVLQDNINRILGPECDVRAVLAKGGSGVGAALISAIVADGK

T4 sequence (Q9HC97 whole entry): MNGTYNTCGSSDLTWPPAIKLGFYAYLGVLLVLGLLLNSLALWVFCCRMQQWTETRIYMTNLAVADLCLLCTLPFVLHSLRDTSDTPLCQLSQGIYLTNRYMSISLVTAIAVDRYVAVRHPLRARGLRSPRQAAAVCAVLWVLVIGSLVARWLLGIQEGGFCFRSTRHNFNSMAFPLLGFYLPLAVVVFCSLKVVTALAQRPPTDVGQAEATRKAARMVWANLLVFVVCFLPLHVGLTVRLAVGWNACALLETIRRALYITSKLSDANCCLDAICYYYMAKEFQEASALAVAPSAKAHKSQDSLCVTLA
T2 sequence (P34972 whole entry): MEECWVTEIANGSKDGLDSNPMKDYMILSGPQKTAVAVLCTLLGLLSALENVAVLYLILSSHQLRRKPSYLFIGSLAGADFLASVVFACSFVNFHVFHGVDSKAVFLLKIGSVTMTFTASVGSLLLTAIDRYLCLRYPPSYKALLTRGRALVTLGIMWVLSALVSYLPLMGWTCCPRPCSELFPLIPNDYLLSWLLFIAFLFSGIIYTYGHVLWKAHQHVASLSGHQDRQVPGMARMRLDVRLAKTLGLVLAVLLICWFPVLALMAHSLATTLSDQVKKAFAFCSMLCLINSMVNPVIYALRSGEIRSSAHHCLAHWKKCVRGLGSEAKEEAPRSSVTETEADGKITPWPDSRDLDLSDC
T3 sequence (P21554 whole entry): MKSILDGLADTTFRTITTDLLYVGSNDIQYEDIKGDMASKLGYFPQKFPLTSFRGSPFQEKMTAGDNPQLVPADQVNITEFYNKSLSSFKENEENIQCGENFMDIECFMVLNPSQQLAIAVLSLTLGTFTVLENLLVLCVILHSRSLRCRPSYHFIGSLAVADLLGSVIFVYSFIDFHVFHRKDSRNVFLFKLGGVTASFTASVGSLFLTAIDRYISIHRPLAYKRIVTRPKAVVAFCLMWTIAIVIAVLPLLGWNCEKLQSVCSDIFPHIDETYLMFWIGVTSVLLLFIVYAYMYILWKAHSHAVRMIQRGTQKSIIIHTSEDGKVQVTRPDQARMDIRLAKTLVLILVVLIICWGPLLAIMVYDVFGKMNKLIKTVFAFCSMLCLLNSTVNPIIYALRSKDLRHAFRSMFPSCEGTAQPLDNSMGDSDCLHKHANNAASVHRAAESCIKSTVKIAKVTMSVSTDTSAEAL
Chain of G-protein coupled receptor 55 (Q9Y2T6 whole entry): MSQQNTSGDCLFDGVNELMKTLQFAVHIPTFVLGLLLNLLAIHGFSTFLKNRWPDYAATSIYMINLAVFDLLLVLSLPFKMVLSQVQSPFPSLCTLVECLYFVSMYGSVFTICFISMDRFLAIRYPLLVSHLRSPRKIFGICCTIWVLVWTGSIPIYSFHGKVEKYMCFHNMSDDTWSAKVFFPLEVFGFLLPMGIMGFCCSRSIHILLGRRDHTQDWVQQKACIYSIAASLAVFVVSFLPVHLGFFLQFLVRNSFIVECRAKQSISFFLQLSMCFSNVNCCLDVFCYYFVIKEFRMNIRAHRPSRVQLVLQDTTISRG

EC50 (Cannabinoid receptor 2 [1]) | IC50 (Cannabinoid receptor 1 [2]) | IC50 [3] | EC50 [4] | IC50 (Cannabinoid receptor 2 [5]) | EC50 (Cannabinoid receptor 1 [6]) | IC50 [7] | SMILES | further results
– | – | – | – | – | – | – | CC12CCC(C(=O)NC(c3ccccc3)c3ccccc3)(OC1=O)C2(C)C (stereo not given) | IC50 (Coagulation factor XII): > 50 µM (inactive)
– | – | – | – | – | – | – | COc1ccc(S(=O)(=O)N2CN(Cc3ccco3)c3nc4ccccc4nc32)cc1 | EC50 (Troponin, cardiac muscle): > 71.5 µM (inactive)
> 32 µM (inactive) | 1.68 µM (active) | > 32 µM (inactive) | > 32 µM (inactive) | 10.4 µM (inactive) | > 32 µM (inactive) | 3.95 µM (active) | Cc1nnc(-c2cccc(Br)c2)c2cn(-c3ccccc3)nc12 | –
– | – | – | – | – | – | – | O=C(CCNC(=O)Cn1ccc2ccccc2c1=O)NCCN1CCN(c2cccc(Cl)c2)CC1 | IC50 [8]: 4.45 µM (active); IC50 [9]: 8.08 µM (active); IC50 (Bcl-2-related protein A1): > 20 µM (inactive)
> 32 µM (inactive) | 24.9 µM (inactive) | > 32 µM (inactive) | > 32 µM (inactive) | > 32 µM (inactive) | > 32 µM (inactive) | 8.18 µM (active) | Cc1ccc2nc3c(cc(C(=O)NC4CCCC4)c(=N)n3C3CCCC3)c(=O)n2c1 | –
– | – | – | – | – | – | – | COc1ccc(C(=O)Nc2ccc(Cl)cc2C(=O)O)cc1 | IC50 (Hexokinase): > 25 µM (inactive)
